Counter-ions that a name gives are not always drawn. Like-named read-outs stand apart in the source and are kept apart here. Each block holds one compound with its values, some of them ahead of it.
Legend:
[1] = 40° C./75% RH for 24 hours
Description: The resulting mixture was thermally cycled for 3 days between 40° C. and 5° C. (Ramp rate: 0.1° C./min with isothermal holds of 1 hour at 40° C. and 5° C.).
The resulting mixture was thermally cycled for 3 days between 40° C. and 5° C. (Ramp rate: 0.1° C./min with isothermal holds of 1 hour at 40° C. and 5° C.). Solids were isolated by centrifuge filtration and analysed wet by XRPD. Sample was dried at 40° C. under vacuum for 24 hours then reanalysed by XRPD.
The resulting mixture was thermally cycled for 3 days between 40° C. and 5° C. (Ramp rate: 0.1° C./min with isothermal holds of 1 hour at 40° C. and 5° C.). Solids were isolated by centrifuge filtration and analysed wet by XRPD.

[2] = Thermodynamic solubility of AP1189 salts in 0.5 M and 0.2 M buffer solutions (Example 6, Tables 38a, 38b); conditions: for XRPD analysis of residual solids from solubility experiment / Solubility (mM freebase): 0.5 M buffer; for Solubility (mM freebase): 24 h
[3] = buffer solution pH 1.2, pH adjusted to 1.2 with concentrated hydrochloric acid, samples fully dissolved, HPLC
Description: As a result, the pH was adjusted to 1.2 with concentrated hydrochloric acid in both solutions. Both sample preparations were diluted 500 times with the sample diluent (acetonitrile:water 1:1 v/v).

Compound: N-{3-[1-(2-nitrophenyl)-1H-pyrrol-2-yl]-allylidene}-aminoguanidine glutaric acid salt [Glutaric Acid Pattern 1]
XRPD diffractogram after storage [1]: resulted in a new pattern by XRPD (Pattern 4)

Compound: CC(=O)O.N=C(N)NN=CC=Cc1cccn1-c1ccccc1[N+](=O)[O-] [AP1189 acetate, N-{3-[1-(2-nitrophenyl)-1H-pyrrol-2-yl]-allylidene}-aminoguanidinium acetate]
XRPD analysis of residual solids from solubility experiment ([2]; pH 1.2): a likely HCl salt (assigned as HCl Pattern 1) was formed
XRPD analysis of residual solids from solubility experiment ([2]; pH 4.5): remained
solubility, comparison of salts (in words) ([2]; 0.5 M buffers, succinate Pattern 1 compared with fumarate Pattern 1): highest solubility
solubility at pH 1.2 (in words) ([2]; pH 1.2): high solubility
Determined concentration in pH 1.2 samples, pH 1.2 (time) [3]: >223 mg/mL
Determined concentration in pH 1.2 samples, pH 1.2 (time) ([3]; time: acetate 5 h, succinate 0.5 h): >617 mM (5 h)

Compound: N=C(N)NN=CC=Cc1cccn1-c1ccccc1[N+](=O)[O-].O=S(=O)(O)NC1CCCCC1 [Cyclamic Acid Pattern 5, N-{3-[1-(2-nitrophenyl)-1H-pyrrol-2-yl]-allylidene}-aminoguanidinium cyclamate]
XRPD diffractogram after storage [1]: consistent with pattern 5

Solubility (mM freebase) ([2]; pH 1.2, thermodynamic solubility): 7.84 mM freebase
Solubility (mM freebase) ([2]; pH 4.5, thermodynamic solubility): 1.64 mM freebase
Compound: N=C(N)N/N=C/C=C/c1cccn1-c1ccccc1[N+](=O)[O-] [Fumarate Salt Pattern 1 (Form D)]

Compound: N-{3-[1-(2-nitrophenyl)-1H-pyrrol-2-yl]-allylidene}-aminoguanidinium edisylate [Ethane-1,2-disulfonic Acid Pattern 5]
XRPD diffractogram after storage [1]: consistent with pattern 1
